Source: patent US20080004290A1, “Anti-Cancer Agents” (THE UNIVERSITY OF QUEENSLAND, priority 2003, published 2008)
Where two headings read alike, the source gives them in different places.

Key:
[1] = system: NFF, neonatal foreskin fibroblasts; experiment: Cell survival assay (clonogenic survival, SRB), normal cells; format: cell-based, human; settings: SRB
Procedure: (§1) The cytotoxicities of the compounds of the invention were determined by clonogenic survival of human cancer cells (MM96L, melanoma) and human normal cells (NFF, neonatal foreskin fibroblasts). Cells were incubated with the compounds at various concentrations of compound (0.01-10 μg/mL) for 24 hours, washed, and then grown for a further four days in the absence of hydroxamic acid before determining cell survival by cell count. The final readout involved staining with sulforhodamine B (SRB), a cost-effective method amenable to automation and high throughput analysis. At the technical level, “cell sensitivity” is often inferred from short term (1-2 day) observations such as apoptosis, which may not be a satisfactory model of clonogenic survival.
(§2) Cell Lines and Culture Medium. All cell lines used in this study have been described previously (Parsons et al., 1986; Todaro et al., 1980; Glenn et al., 2004). All cell lines were cultured in 10% heat-inactivated foetal calf serum (CSL, Australia) in RPMI 1640 medium supplemented with 100 U/mL penicillin, 100 μg/mL streptomycin, and 3 mM HEPES at 5% CO2, 99% humidity at 37° C. Primary human fibroblasts were obtained from neonatal foreskins and cultured in the above medium. Routine mycoplasma tests were performed using Hoechst stain^i and were always negative.
(§3) Cell Survival Assay. Cells were plated into 96-well microtitre plates at 5×10^3 cells/well, and allowed to adhere overnight. Test compounds were added to culture medium at the indicated concentrations, and plates incubated in the above conditions for 24 hours. Following this incubation period, compounds and media were removed, and replaced with fresh culture medium. Cells were then grown for a further 72 hours before assay using sulforhodamine B (SRB; Sigma, St. Louis, Mo.) as previously described. Briefly, the culture medium was removed from the 96-well microtitre plates and the plates washed twice with phosphate buffered saline (PBS), before the cells were fixed with methylated spirits for 15 minutes. The plates were then rinsed with tap water and the fixed cells stained with 50 μL/well of SRB solution (0.4% sulforhodamine B (w/v) in 1% (v/v) acetic acid) over a period of 1 hour. The SRB solution was then removed from the wells and the plates rapidly washed two times with 1% (v/v) acetic acid. Protein bound dye was then solubilised with the addition of 100 μL of 10 mM unbuffered Tris, and incubated for 15 min at 25° C. Plates were then read at 564 nm on a VERSA max tunable microplate reader (Molecular Devices, Sunnyvale, Calif.).

MM96L melanoma cells = experiment: Cell survival assay (clonogenic survival, SRB); format: cell-based, human; settings: for IC50: SRB; for SI (Selectivity Index = IC50 (NFF)/IC50 (MM96L)): NFF vs MM96L
Procedure: as §1, §2, §3

[2] = Table 5, 24 hours with compound, further growth, read-out: IC50 NFF
[3] = Table 5, 24 hours with compound, further growth, read-out: IC50 MM96L
[4] = Table 5, Selectivity Index = IC50 (NFF)/IC50 (MM96L)
[5] = Table 6, 24 hours with compound, further growth, read-out: IC50 (μM) NFF
[6] = Table 6, 24 hours with compound, further growth, read-out: IC50 (μM) MM96L
[7] = Table 6, IC50 (NFF)/IC50 (MM96L)
[8] = Table 8, 24 hours with compound, further growth, read-out: IC50 (μM) NFF
[9] = Table 8, 24 hours with compound, further growth, read-out: IC50 (μM) MM96
[10] = Table 8, IC50 (NFF)/IC50 (MM96L)
[11] = Homo sapiens, Fibroblast, NFF normal fibroblasts, 24 h with compound, further 72 h growth, read-out: IC50 (uM) NFF
[12] = Homo sapiens, MM96L, MM96L melanoma, 24 h with compound, further 72 h growth, read-out: IC50 (uM) MM96L
[13] = Homo sapiens, Fibroblast, 24 h, Table 6, 24 hours with compound, further growth, read-out: IC50 (μM) NFF
[14] = Homo sapiens, MM96L, 24 h, Table 6, 24 hours with compound, further growth, read-out: IC50 (μM) MM96L

Question: For `O=C(CCCSC[C@H](NC(=O)c1ccc2ccccc2c1)C(=O)NCc1ccccc1)NO` [Example 38], which IC50 [1, 2] is on record?
Answer: The IC50 was 1.14 ± 0.05 µM.

Question: And the IC50 (MM96L melanoma cells; [3])?
Answer: Its IC50 is 0.6 ± 0.2 µM.

Question: What about the Selectivity (MM96L melanoma cells; [4]) of the same compound?
Answer: The Selectivity was 1.9.

Question: How did the IC50 [1, 2] turn out when `O=C(CCCSC[C@H](NC(=O)c1ccccc1C(=O)c1ccccc1)C(=O)NCc1ccccc1)NO` [Example 27] was run?
Answer: Its IC50 is 30 ± 1 µM.

Question: And the IC50 (MM96L melanoma cells; [3])?
Answer: Its IC50 is 24 ± 3 µM.

Question: What about the Selectivity (MM96L melanoma cells; [4]) of the same compound?
Answer: Its Selectivity is 1.3.

Question: For `O=C(CCCSC[C@H](NC(=O)Cc1cccc2ccccc12)C(=O)NCc1ccccc1)NO` [Example 45], which IC50 [1, 2] is on record?
Answer: The IC50 was 15 ± 1 µM.

Question: What about the IC50 (MM96L melanoma cells; [3]) of the same compound?
Answer: The IC50 was 4.1 ± 0.7 µM.

Question: And the Selectivity (MM96L melanoma cells; [4])?
Answer: Its Selectivity is 3.7.

Question: How did the IC50 [1, 5] turn out when `CN(C)c1ccc(C(=O)N[C@@H](CSCCCC(=O)NO)C(=O)N[C@H](c2ccccc2)[C@@H](O)c2ccccc2)cc1` [Example 76] was run?
Answer: Its IC50 is 9 ± 3 µM.

Question: What about the IC50 (MM96L melanoma cells; [6]) of the same compound?
Answer: The IC50 was 2.1 ± 0.2 µM.

Question: What about the Selectivity (MM96L melanoma cells; [7]) of the same compound?
Answer: The Selectivity was 4.3.

Question: `CN(C)c1ccc(C(=O)N[C@@H](CSCCCC(=O)NO)C(=O)NCc2ccc(C(=O)Nc3ccc4ncccc4c3)cc2)cc1` [Example 116] was tested. Which IC50 [1, 8] did it give?
Answer: The IC50 was 5.57 µM.

Question: And the IC50 (MM96L melanoma cells; [9])?
Answer: Its IC50 is 2.23 µM.

Question: What about the Selectivity (MM96L melanoma cells; [10]) of the same compound?
Answer: Its Selectivity is 2.5.

Question: How did the IC50 [1, 8] turn out when `CN(C)c1ccc(C(=O)N[C@@H](CSCCCC(=O)NO)C(=O)NCc2ccc(C(=O)Nc3cccc4cccnc34)cc2)cc1` [Example 115] was run?
Answer: Its IC50 is 1.35 µM.

Question: What about the IC50 (MM96L melanoma cells; [9]) of the same compound?
Answer: The IC50 was 0.56 µM.

Question: What about the Selectivity (MM96L melanoma cells; [10]) of the same compound?
Answer: The Selectivity was 2.4.

Question: How did the IC50 [1, 11] turn out when `O=C(CCCCC[C@H](NC(=O)OCc1ccccc1)C(=O)NCc1ccncc1)NO` [Example 159] was run?
Answer: The IC50 was 23.3 µM.

Question: What about the IC50 (MM96L melanoma cells; [12]) of the same compound?
Answer: Its IC50 is 4.32 µM.

Question: What about the “SI (Selectivity Index = IC50 (NFF)/IC50 (MM96L))” value (MM96L melanoma cells) of the same compound?
Answer: The value was 5.4.

Question: How did the IC50 [1, 2] turn out when `CC(C)=CC(=O)N[C@@H](CSCCCC(=O)NO)C(=O)NCc1ccccc1` [Example 53] was run?
Answer: The IC50 was 22 ± 1 µM.

Question: What about the IC50 (MM96L melanoma cells; [3]) of the same compound?
Answer: Its IC50 is 11 ± 1 µM.

Question: What about the Selectivity (MM96L melanoma cells; [4]) of the same compound?
Answer: The Selectivity was 2.0.

Question: What does the source list for `CC(C)CCNC(=O)C(CCCCCC(=O)NO)NC(=O)c1ccco1` (racemic) [Example 144]?
Answer: IC50 ([1]; NFF normal fibroblasts, 24 h with compound, further 72 h growth, read-out: IC50 (uM) NFF): 4.4 ± 0.5 µM; IC50 (MM96L melanoma cells; MM96L melanoma, 24 h with compound, further 72 h growth, read-out: IC50 (uM) MM96L): 1.5 ± 0.2 µM; SI (Selectivity Index = IC50 (NFF)/IC50 (MM96L)) (MM96L melanoma cells): 2.9

Question: For `CN(C)c1ccc(C(=O)NC(CSCCCC(=O)NO)C(=O)NC(C)(C)C)cc1` (centres unmarked) [Example 96], which IC50 [1, 5] is on record?
Answer: The IC50 was 3.5 ± 0.5 µM.

Question: What about the IC50 (MM96L melanoma cells; [6]) of the same compound?
Answer: Its IC50 is 0.7 ± 0.2 µM.

Question: What about the Selectivity (MM96L melanoma cells; [7]) of the same compound?
Answer: The Selectivity was 5.0.

Question: Which results are given for `CN(C)c1ccc(C(=O)N[C@@H](CSCCCC(=O)NO)C(=O)Nc2ccccc2Cc2ccccc2)cc1` [Example 64]?
Answer: IC50 [1, 13]: 6.8 ± 0.4 µM; IC50 (MM96L melanoma cells; [14]): 3.5 ± 0.2 µM; Selectivity (MM96L melanoma cells; [7]): 1.9

Question: Which IC50 [1, 11] does the source give for `O=C(CCCCC[C@H](NC(=O)OCC1c2ccccc2-c2ccccc21)C(=O)NCc1ccccc1)NO` [Example 142] here?
Answer: Its IC50 is 5.37 µM.

Question: What about the IC50 (MM96L melanoma cells; [12]) of the same compound?
Answer: Its IC50 is 3.2 µM.

Question: And the “SI (Selectivity Index = IC50 (NFF)/IC50 (MM96L))” value (MM96L melanoma cells)?
Answer: Its value is 1.7.

Question: Which results are given for `O=C(CCCCC[C@H](NC(=O)c1cccs1)C(=O)NCc1ccccc1)NO` [Example 141]?
Answer: IC50 [1, 11]: 5.2 µM; IC50 (MM96L melanoma cells; [12]): 0.892 µM; SI (Selectivity Index = IC50 (NFF)/IC50 (MM96L)) (MM96L melanoma cells): 5.8

Question: Which results are given for `CN(C)c1ccc(C(=O)N[C@@H](CSCCCC(=O)NO)C(=O)NCCc2cccc(Br)c2)cc1` [Example 85]?
Answer: IC50 [1, 5]: 3.1 ± 0.1 µM; IC50 (MM96L melanoma cells; [6]): 0.9 ± 0.1 µM; Selectivity (MM96L melanoma cells; [7]): 3.4

Question: For `COC(=O)c1ccc(NC(=O)[C@H](CSCCCC(=O)NO)NC(=O)c2ccc(N(C)C)cc2)cc1` [Example 63], which IC50 [1, 13] is on record?
Answer: Its IC50 is 2.8 ± 0.1 µM.

Question: And the IC50 (MM96L melanoma cells; [14])?
Answer: Its IC50 is 0.96 ± 0.07 µM.

Question: `O=C(CCCCC[C@H](NC(=O)c1ccc(C(F)(F)F)cc1)C(=O)NCc1ccccc1)NO` [Example 155] was tested. Which IC50 [1, 11] did it give?
Answer: Its IC50 is 1.61 µM.

Question: What about the IC50 (MM96L melanoma cells; [12]) of the same compound?
Answer: The IC50 was 0.665 µM.

Question: What about the “SI (Selectivity Index = IC50 (NFF)/IC50 (MM96L))” value (MM96L melanoma cells) of the same compound?
Answer: The value was 2.4.

Question: For `CN(C)c1ccc(C(=O)NC(CSCCCC(=O)NO)C(=O)NCc2ccc(C(=O)NC3CCCc4ccccc43)cc2)cc1` (mixture of isomers) [Example 119], which IC50 [1, 8] is on record?
Answer: The IC50 was 1.74 µM.

Question: And the IC50 (MM96L melanoma cells; [9])?
Answer: The IC50 was 0.93 µM.

Question: And the Selectivity (MM96L melanoma cells; [10])?
Answer: The Selectivity was 1.9.

Question: `CN(C)c1ccc(C(=O)N[C@@H](CSCCCC(=O)NO)C(=O)Nc2cccc3ccccc23)cc1` [Example 65] was tested. Which IC50 [1, 13] did it give?
Answer: Its IC50 is 5.9 ± 0.7 µM.

Question: And the IC50 (MM96L melanoma cells; [14])?
Answer: Its IC50 is 1.3 ± 0.1 µM.

Question: And the Selectivity (MM96L melanoma cells; [7])?
Answer: Its Selectivity is 4.5.

Question: Which results are given for `O=C(CCCSC[C@H](NC(=O)CCCc1ccccc1)C(=O)NCc1ccccc1)NO` [Example 49]?
Answer: IC50 [1, 2]: 11 ± 2 µM; IC50 (MM96L melanoma cells; [3]): 5 ± 1 µM; Selectivity (MM96L melanoma cells; [4]): 2.2
